Each structure is given as a SMILES string. pIC50: −log10 of the molar value.

T1 sequence (Q7ZJM1 whole entry): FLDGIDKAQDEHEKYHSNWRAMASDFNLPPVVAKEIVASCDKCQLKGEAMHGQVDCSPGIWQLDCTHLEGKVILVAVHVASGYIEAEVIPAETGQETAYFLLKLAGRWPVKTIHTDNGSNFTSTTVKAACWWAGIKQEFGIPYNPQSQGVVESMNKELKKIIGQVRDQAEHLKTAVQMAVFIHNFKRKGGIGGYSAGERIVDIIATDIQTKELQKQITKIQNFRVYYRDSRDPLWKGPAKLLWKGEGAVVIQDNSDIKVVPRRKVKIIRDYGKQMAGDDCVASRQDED

One experiment addresses T1, Human immunodeficiency virus type 1 integrase (Human immunodeficiency virus 1, UniProt Q7ZJM1). In words: Inhibition of HIV1 recombinant integrase 3'-processing and strand transfer activity using 21-mer U5B/U5A duplex oligonucleotides after 1 hr.
Conditions: not given; call rule not given here
With `CCOC(=O)CC(=O)Nc1ccc(C)cc1[N+](=O)[O-]`, the IC50 entry is “Not Active”.
Regarding `CCOC(=O)CC(=O)Nc1ccccc1[N+](=O)[O-]`, the IC50 entry is “Not Active”.

Staying with this experiment, now noted: read-out: IC50.
Take `CCOC(=O)CC(=O)Nc1cc(C(=O)O)ccc1O`: the pIC50 (in general, the negative decadic logarithm of the IC50, by convention in mol/L) is under 3.52.
Turning to `CCOC(=O)CC(=O)Nc1c(Cl)cccc1Cl`, the pIC50 is under 4.00.
Regarding `CCOC(=O)CC(=O)NCc1ccc(F)cc1`, the negative logarithm of the IC50 (pIC50) was under 4.00.
Still for that read-out and setting: in the case of `CCOC(=O)CC(=O)NS(=O)(=O)c1ccc(C)cc1` it was 3.30.
Same read-out and setting: the result for `Cc1ccc(NC(=O)CC(=O)O)c([N+](=O)[O-])c1` reads under 4.00.
On the same count and under the same terms, the result for `CCOC(=O)CC(=O)Nc1ccc(C)cc1` reads 4.30; that for `CCOC(=O)CC(=O)Nc1ccc2cccc(O)c2n1`, 4.38; that for `CCOC(=O)CC(=O)Nc1ccc(C(=O)O)cc1`, 5.70.

In a further experiment the target is T1, Human immunodeficiency virus type 1 integrase. In words: Inhibition of HIV1 integrase.
Conditions: not given
Turning to `Cc1ccc2c(O)c(C(=O)O)ccc2n1`, the pIC50 was 4.33.
The same measure, in the same setting: in the case of `Cc1ccc2ccc(C(=O)O)c(O)c2n1` it was under 4.00.

For the origin of these results see ChEMBL document CHEMBL1811819, “Ethyl malonate amides: a diketo acid offspring fragment for HIV integrase inhibition” (Bioorg Med Chem, 2011).
